From patent publication US10485235B2, “Aryloxypyrimidinyl ethers as herbicides” (FMC Corporation, priority 2015, dated 2019)

Columns and labels:
Format in all cases: in vivo
corn (Zea mays) = assay: Test A postemergence, corn; conditions: postemergence, 0 to 100 scale, 0 is no effect, 100 is complete control, approximately 10 days
How it was run: (§1)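 Ratings run 0–100, where 100 is complete control, and were scored visually against untreated plants about 10 days after treatment under greenhouse conditions. Formulated chemicals were sprayed either onto the soil surface after seeding (preemergence) or onto one- to two-leaf seedlings 2–10 cm high (postemergence).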

[1] = system: barnyardgrass (Echinochloa crus-galli); assay: Test B flooded paddy test, barnyardgrass; conditions: 250 g ai/ha, Flood; visual rating after 13 to 15 days; scale 0 to 100, 0 is no effect, 100 is complete control
How it was run: (§2)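 Visual ratings, 0 = no effect to 100 = complete control, versus controls after 13 to 15 days in greenhouse. Test compounds were added to paddy water kept 3 cm over the soil surface, on plants at 2-leaf stage.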

[2] = system: ryegrass, Italian (Italian ryegrass, Lolium multiflorum); assay: Test A postemergence, Italian ryegrass; conditions: postemergence, 0 to 100 scale, 0 is no effect, 100 is complete control, approximately 10 days
How it was run: as §1

[3] = system: barnyardgrass (Echinochloa crus-galli); assay: Test A postemergence, barnyardgrass; conditions: postemergence, 0 to 100 scale, 0 is no effect, 100 is complete control, approximately 10 days
How it was run: as §1

kochia (Kochia scoparia) [4] = assay: Test A postemergence, kochia; conditions: postemergence, 0 to 100 scale, 0 is no effect, 100 is complete control, approximately 10 days
How it was run: as §1

rice (Oryza sativa) = assay: Test B flooded paddy test, rice; conditions: 250 g ai/ha, Flood; visual rating after 13 to 15 days; scale 0 to 100, 0 is no effect, 100 is complete control
How it was run: as §2

[5] = system: ryegrass, Italian (Italian ryegrass, Lolium multiflorum); assay: Test A preemergence, Italian ryegrass; conditions: Preemergence, 0 to 100 scale (0 no effect, 100 complete control)
How it was run: as §1

[6] = system: galium (catchweed bedstraw, Galium aparine); assay: Test A postemergence, galium; conditions: postemergence, 0 to 100 scale, 0 is no effect, 100 is complete control, approximately 10 days
How it was run: as §1

[7] = system: sedge, umbrella (small-flower umbrella sedge, Cyperus difformis); assay: Test B flooded paddy test, umbrella sedge; conditions: 250 g ai/ha, Flood; visual rating after 13 to 15 days; scale 0 to 100, 0 is no effect, 100 is complete control
How it was run: as §2

[8] = system: foxtail, giant (giant foxtail, Setaria faberii); assay: Test A postemergence, giant foxtail; conditions: postemergence, 0 to 100 scale, 0 is no effect, 100 is complete control, approximately 10 days
How it was run: as §1

[9] = system: wheat (Triticum aestivum); assay: Test A postemergence, wheat; conditions: postemergence, 0 to 100 scale, 0 is no effect, 100 is complete control, approximately 10 days
How it was run: as §1

kochia (Kochia scoparia) [10] = assay: Test A preemergence, kochia; conditions: Preemergence, 0 to 100 scale (0 no effect, 100 complete control)
How it was run: as §1

[11] = system: barnyardgrass (Echinochloa crus-galli); assay: Test A preemergence, barnyardgrass; conditions: Preemergence, 0 to 100 scale (0 no effect, 100 complete control)
How it was run: as §1

[12] = system: blackgrass (Alopecurus myosuroides); assay: Test A postemergence, blackgrass; conditions: postemergence, 0 to 100 scale, 0 is no effect, 100 is complete control, approximately 10 days
How it was run: as §1

[13] = system: ragweed (common ragweed, Ambrosia elatior); assay: Test A preemergence, ragweed; conditions: Preemergence, 0 to 100 scale (0 no effect, 100 complete control)
How it was run: as §1

[14] = system: pigweed (Amaranthus retroflexus); assay: Test A postemergence, pigweed; conditions: postemergence, 0 to 100 scale, 0 is no effect, 100 is complete control, approximately 10 days
How it was run: as §1

[15] = system: ragweed (common ragweed, Ambrosia elatior); assay: Test A postemergence, ragweed; conditions: postemergence, 0 to 100 scale, 0 is no effect, 100 is complete control, approximately 10 days
How it was run: as §1

[16] = system: pigweed (Amaranthus retroflexus); assay: Test A preemergence, pigweed; conditions: Preemergence, 0 to 100 scale (0 no effect, 100 complete control)
How it was run: as §1

[17] = system: foxtail, giant (giant foxtail, Setaria faberii); assay: Test A preemergence, giant foxtail; conditions: Preemergence, 0 to 100 scale (0 no effect, 100 complete control)
How it was run: as §1

[18] = system: ducksalad (Heteranthera limosa); assay: Test B flooded paddy test, ducksalad; conditions: 250 g ai/ha, Flood; visual rating after 13 to 15 days; scale 0 to 100, 0 is no effect, 100 is complete control
How it was run: as §2

FCCCOc1c(Cl)cccc1Oc1ncc(Cl)cn1 [Compound 44]
Plant response rating, Corn (corn (Zea mays); 31 g ai/ha): 0
Plant response rating, Corn (corn (Zea mays); 125 g ai/ha): 10
Plant response rating, Barnyardgrass [1]: 0
Plant response rating, Ryegrass, Italian ([2]; 31 g ai/ha): 0
Plant response rating, Ryegrass, Italian ([2]; 125 g ai/ha): 0
Plant response rating, Barnyardgrass ([3]; 31 g ai/ha): 0
Plant response rating, Barnyardgrass ([3]; 125 g ai/ha): 10
Plant response rating, Kochia (kochia (Kochia scoparia) [4]; 31 g ai/ha): 20
Plant response rating, Kochia (kochia (Kochia scoparia) [4]; 125 g ai/ha): 70
Plant response rating, Rice (rice (Oryza sativa)): 0
Plant response rating, Ryegrass, Italian ([5]; 31 g ai/ha): 0
Plant response rating, Ryegrass, Italian ([5]; 125 g ai/ha): 0
Plant response rating, Galium ([6]; 31 g ai/ha): 10
Plant response rating, Galium ([6]; 125 g ai/ha): 20
Plant response rating, Sedge, Umbrella [7]: 30
Plant response rating, Foxtail, Giant ([8]; 31 g ai/ha): 0
Plant response rating, Foxtail, Giant ([8]; 125 g ai/ha): 20
Plant response rating, Wheat ([9]; 31 g ai/ha): 0
Plant response rating, Wheat ([9]; 125 g ai/ha): 0
Plant response rating, Kochia (kochia (Kochia scoparia) [10]; 31 g ai/ha): 0
Plant response rating, Kochia (kochia (Kochia scoparia) [10]; 125 g ai/ha): 40
Plant response rating, Barnyardgrass ([11]; 31 g ai/ha): 10
Plant response rating, Barnyardgrass ([11]; 125 g ai/ha): 20
Plant response rating, Blackgrass ([12]; 31 g ai/ha): 0
Plant response rating, Blackgrass ([12]; 125 g ai/ha): 10
Plant response rating, Ragweed ([13]; 31 g ai/ha): 0
Plant response rating, Ragweed ([13]; 125 g ai/ha): 0
Plant response rating, Pigweed ([14]; 31 g ai/ha): 30
Plant response rating, Pigweed ([14]; 125 g ai/ha): 70
Plant response rating, Ragweed ([15]; 31 g ai/ha): 0
Plant response rating, Ragweed ([15]; 125 g ai/ha): 0
Plant response rating, Pigweed ([16]; 31 g ai/ha): 10
Plant response rating, Pigweed ([16]; 125 g ai/ha): 100
Plant response rating, Foxtail, Giant ([17]; 31 g ai/ha): 10
Plant response rating, Foxtail, Giant ([17]; 125 g ai/ha): 80
Plant response rating, Ducksalad [18]: 70

N#Cc1cccc(Oc2ncc(Cl)cn2)c1OCc1cccc(Cl)c1 [Compound 21]
Plant response rating, Corn (corn (Zea mays); 125 g ai/ha): 10
Plant response rating, Corn (corn (Zea mays); 500 g ai/ha): 20
Plant response rating, Barnyardgrass [1]: 0
Plant response rating, Ryegrass, Italian ([2]; 125 g ai/ha): 0
Plant response rating, Ryegrass, Italian ([2]; 500 g ai/ha): 0
Plant response rating, Barnyardgrass ([3]; 125 g ai/ha): 10
Plant response rating, Barnyardgrass ([3]; 500 g ai/ha): 20
Plant response rating, Kochia (kochia (Kochia scoparia) [4]; 125 g ai/ha): 40
Plant response rating, Kochia (kochia (Kochia scoparia) [4]; 500 g ai/ha): 70
Plant response rating, Rice (rice (Oryza sativa)): 0
Plant response rating, Ryegrass, Italian ([5]; 125 g ai/ha): 0
Plant response rating, Ryegrass, Italian ([5]; 500 g ai/ha): 10
Plant response rating, Galium ([6]; 125 g ai/ha): 20
Plant response rating, Galium ([6]; 500 g ai/ha): 70
Plant response rating, Sedge, Umbrella [7]: 0
Plant response rating, Foxtail, Giant ([8]; 125 g ai/ha): 10
Plant response rating, Foxtail, Giant ([8]; 500 g ai/ha): 40
Plant response rating, Wheat ([9]; 125 g ai/ha): 0
Plant response rating, Wheat ([9]; 500 g ai/ha): 10
Plant response rating, Kochia (kochia (Kochia scoparia) [10]; 125 g ai/ha): 0
Plant response rating, Kochia (kochia (Kochia scoparia) [10]; 500 g ai/ha): 30
Plant response rating, Barnyardgrass ([11]; 125 g ai/ha): 0
Plant response rating, Barnyardgrass ([11]; 500 g ai/ha): 10
Plant response rating, Blackgrass ([12]; 125 g ai/ha): 0
Plant response rating, Blackgrass ([12]; 500 g ai/ha): 20
Plant response rating, Ragweed ([13]; 125 g ai/ha): 0
Plant response rating, Ragweed ([13]; 500 g ai/ha): 0
Plant response rating, Pigweed ([14]; 125 g ai/ha): 50
Plant response rating, Pigweed ([14]; 500 g ai/ha): 60
Plant response rating, Ragweed ([15]; 125 g ai/ha): 10
Plant response rating, Ragweed ([15]; 500 g ai/ha): 20
Plant response rating, Pigweed ([16]; 125 g ai/ha): 10
Plant response rating, Pigweed ([16]; 500 g ai/ha): 40
Plant response rating, Foxtail, Giant ([17]; 125 g ai/ha): 40
Plant response rating, Foxtail, Giant ([17]; 500 g ai/ha): 100
Plant response rating, Ducksalad [18]: 0

N#CCCCOc1c(Cl)cccc1Oc1ncc(Cl)cn1 [Compound 45]
Plant response rating, Corn (corn (Zea mays); 31 g ai/ha): 0
Plant response rating, Corn (corn (Zea mays); 125 g ai/ha): 10
Plant response rating, Barnyardgrass [1]: 0
Plant response rating, Ryegrass, Italian ([2]; 31 g ai/ha): 0
Plant response rating, Ryegrass, Italian ([2]; 125 g ai/ha): 0
Plant response rating, Barnyardgrass ([3]; 31 g ai/ha): 0
Plant response rating, Barnyardgrass ([3]; 125 g ai/ha): 10
Plant response rating, Kochia (kochia (Kochia scoparia) [4]; 31 g ai/ha): 20
Plant response rating, Kochia (kochia (Kochia scoparia) [4]; 125 g ai/ha): 50
Plant response rating, Rice (rice (Oryza sativa)): 0
Plant response rating, Ryegrass, Italian ([5]; 31 g ai/ha): 0
Plant response rating, Ryegrass, Italian ([5]; 125 g ai/ha): 0
Plant response rating, Galium ([6]; 31 g ai/ha): 10
Plant response rating, Galium ([6]; 125 g ai/ha): 20
Plant response rating, Sedge, Umbrella [7]: 0
Plant response rating, Foxtail, Giant ([8]; 31 g ai/ha): 0
Plant response rating, Foxtail, Giant ([8]; 125 g ai/ha): 10
Plant response rating, Wheat ([9]; 31 g ai/ha): 0
Plant response rating, Wheat ([9]; 125 g ai/ha): 0
Plant response rating, Kochia (kochia (Kochia scoparia) [10]; 31 g ai/ha): 0
Plant response rating, Kochia (kochia (Kochia scoparia) [10]; 125 g ai/ha): 30
Plant response rating, Barnyardgrass ([11]; 31 g ai/ha): 0
Plant response rating, Barnyardgrass ([11]; 125 g ai/ha): 10
Plant response rating, Blackgrass ([12]; 31 g ai/ha): 0
Plant response rating, Blackgrass ([12]; 125 g ai/ha): 0
Plant response rating, Ragweed ([13]; 31 g ai/ha): 0
Plant response rating, Ragweed ([13]; 125 g ai/ha): 0
Plant response rating, Pigweed ([14]; 31 g ai/ha): 20
Plant response rating, Pigweed ([14]; 125 g ai/ha): 50
Plant response rating, Ragweed ([15]; 31 g ai/ha): 10
Plant response rating, Ragweed ([15]; 125 g ai/ha): 10
Plant response rating, Pigweed ([16]; 31 g ai/ha): 20
Plant response rating, Pigweed ([16]; 125 g ai/ha): 70
Plant response rating, Foxtail, Giant ([17]; 31 g ai/ha): 0
Plant response rating, Foxtail, Giant ([17]; 125 g ai/ha): 30
Plant response rating, Ducksalad [18]: 20
